Consider 8 compounds from ChEMBL document CHEMBL1201862, “PubChem BioAssay data set” (2004).

Some test systems named below: HCC 2998; U-251; NCI-H460; MDA-MB-435; SNB-19; UO-31; MCF7; SNB-75; UACC-62; SF-539; UACC-257; OVCAR-4; NCI-H226; HOP-62; PC-3; OVCAR-3; HCT-116; OVCAR-8; COLO 205.
Holding throughout (assay): DTP human tumour cell line panel, 48 h

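Growth conditions: 96-well plates. Treatment: test compound, 48 hours, 5 concentrations. Analysis: linear interpolation between bracketing concentrations; unreached endpoints set to highest concentration. Abbreviation: GI50, concentration required for 50% inhibition of growth.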 Active and inactive are the calls of the source. Rule as the data show it: active = GI50 up to about 1.1 µM and inactive = higher.

What is called GI50 is the concentration at which growth is held to half of that of the control. In the case of `CN(C)C=O.O=C(Nc1nnn[nH]1)c1nc(O)cc(-c2ccccc2)n1`, the GI50 in the experiment with HCC 2998, in the experiment with U-251, in the experiment with NCI-H460, in the experiment on MDA-MB-435, with SNB-19 and in the experiment on UO-31 was > 100 µM (inactive) throughout. Further, the GI50 in the experiment on MCF7, with SNB-75, in the experiment on UACC-62, in the experiment with SF-539, in the experiment with UACC-257 and in the experiment on OVCAR-4 was > 100 µM (inactive) in each case. Further, the GI50 in the experiment with NCI-H226, in the experiment on HOP-62, in the experiment on PC-3, in the experiment on OVCAR-3, in the experiment on HCT-116 and in the experiment with OVCAR-8 was > 100 µM (inactive) throughout. The GI50 in the experiment with COLO 205 is > 100 µM (inactive).

For `CC1=C/C(=C(/c2ccc(O)c(C)c2)c2ccccc2C(=O)O)C=CC1=O`, the GI50 in the experiment with HCC 2998 was 19.1 µM (inactive); in the experiment on U-251, 18.2 µM (inactive); with NCI-H460, 31.5 µM (inactive); in the experiment on MDA-MB-435, 17.6 µM (inactive); in the experiment on SNB-19, 17.7 µM (inactive); with UO-31, 18.8 µM (inactive). In addition, the GI50 in the experiment on MCF7 is 19.7 µM (inactive); in the experiment on SNB-75, 18.5 µM (inactive); with UACC-62 it was 17.2 µM (inactive); with SF-539, 19 µM (inactive); in the experiment on UACC-257, 18.7 µM (inactive); in the experiment on OVCAR-4 it was 18.1 µM (inactive). The GI50 with NCI-H226 is 23.1 µM (inactive); in the experiment on HOP-62, 19 µM (inactive); in the experiment with PC-3, 19.6 µM (inactive); in the experiment on OVCAR-3, 18 µM (inactive); in the experiment on HCT-116, 18.2 µM (inactive); in the experiment on OVCAR-8, 20 µM (inactive). The GI50 in the experiment with COLO 205 was 19.9 µM (inactive).

For `O=C1C=CC(=O)c2c1ccc1c3ccccc3n(Cc3cccc([N+](=O)[O-])c3)c21`, the GI50 in the experiment with HCC 2998 was > 80.7 µM (inactive); in the experiment with U-251, > 89.5 µM (inactive); in the experiment with NCI-H460, > 95.9 µM (inactive); in the experiment on MDA-MB-435, 26.2 µM (inactive); with SNB-19, > 100 µM (inactive); with UO-31, 50 µM (inactive). The GI50 is 22.3 µM (inactive) in the experiment on MCF7; > 78.2 µM (inactive) with SNB-75; > 46 µM (inactive) in the experiment on UACC-62; > 54 µM (inactive) with SF-539; 23 µM (inactive) in the experiment with UACC-257; 23.8 µM (inactive) in the experiment on OVCAR-4. Moreover, the GI50 with NCI-H226 was 99.3 µM (inactive); in the experiment with HOP-62 it was > 100 µM (inactive); with PC-3, 30.1 µM (inactive); in the experiment with OVCAR-3, 17.1 µM (inactive); in the experiment on HCT-116, 24.5 µM (inactive); with OVCAR-8 it was 30.4 µM (inactive). The GI50 with COLO 205 is 14.3 µM (inactive).

Turning to `CN(C)CC(O)CNC(=O)Nc1ccccc1` (centres undefined), the GI50 in the experiment with HCC 2998, with U-251, with NCI-H460, in the experiment on MDA-MB-435, in the experiment on SNB-19 and with UO-31 was > 100 µM (inactive) in each case. Also, the GI50 with MCF7, in the experiment on SNB-75, with UACC-62, with SF-539, with UACC-257 and in the experiment with OVCAR-4 was > 100 µM (inactive) throughout. The GI50 with NCI-H226, in the experiment with HOP-62, with PC-3, in the experiment on OVCAR-3, in the experiment with HCT-116 and with OVCAR-8 was > 100 µM (inactive) throughout. Besides, in the experiment with COLO 205, the GI50 is > 100 µM (inactive).

`Cn1cnc2c(sc3nc4ccccc4n32)c1=N`: the GI50 is 17.6 µM (inactive) with HCC 2998; > 100 µM (inactive) in the experiment on U-251; > 100 µM (inactive) in the experiment on MDA-MB-435; > 100 µM (inactive) in the experiment on SNB-19; > 100 µM (inactive) with UO-31; > 100 µM (inactive) in the experiment on MCF7. Also, the GI50 is 11.2 µM (inactive) in the experiment on SNB-75; > 100 µM (inactive) in the experiment on UACC-62; > 100 µM (inactive) in the experiment with SF-539; > 100 µM (inactive) in the experiment with UACC-257; > 100 µM (inactive) with OVCAR-4; > 100 µM (inactive) in the experiment with NCI-H226. Also, the GI50 is > 100 µM (inactive) with HOP-62; > 100 µM (inactive) in the experiment on PC-3; > 100 µM (inactive) in the experiment on OVCAR-3; > 100 µM (inactive) in the experiment with HCT-116; 41.5 µM (inactive) in the experiment on OVCAR-8; > 100 µM (inactive) with COLO 205.

With `C=C(C)[C@@]1(O[Si](C)(C)C)CCCC[C@@H]1CC(Sc1ccccc1)Sc1ccccc1`, the GI50 in the experiment on HCC 2998 was 15.8 µM (inactive); with U-251, 16 µM (inactive); in the experiment on NCI-H460, 13.2 µM (inactive); in the experiment on MDA-MB-435 it was 15.6 µM (inactive); in the experiment on SNB-19 it was 16.4 µM (inactive); in the experiment on UO-31 it was 13.8 µM (inactive). Further, the GI50 with MCF7 was 12 µM (inactive); with SNB-75, 12.1 µM (inactive); in the experiment with UACC-62 it was 13.2 µM (inactive); with SF-539, 10.2 µM (inactive); in the experiment with UACC-257 it was 15.3 µM (inactive); with OVCAR-4, 12.6 µM (inactive). The GI50 in the experiment with NCI-H226 was 16.1 µM (inactive); in the experiment on HOP-62 it was 13.8 µM (inactive); in the experiment on PC-3, 13.2 µM (inactive); with OVCAR-3, 14.1 µM (inactive); in the experiment with OVCAR-8 it was 16.1 µM (inactive); in the experiment with COLO 205, 19.9 µM (inactive).

Take `CCCCCCCCCCCCOCC1(COCCCCCCCCCCCC)COC(c2ccc(N)cc2)OC1`: the GI50 is > 100 µM (inactive) in the experiment with HCC 2998; > 100 µM (inactive) in the experiment on U-251; > 10 µM (inactive) in the experiment with NCI-H460; > 100 µM (inactive) with MDA-MB-435; > 100 µM (inactive) in the experiment with SNB-19; > 100 µM (inactive) in the experiment on UO-31. The GI50 with MCF7, with SNB-75, in the experiment on UACC-62, in the experiment with SF-539, with UACC-257 and in the experiment with OVCAR-4 was > 100 µM (inactive) each time. The GI50 in the experiment with NCI-H226, with HOP-62, in the experiment on PC-3, in the experiment on OVCAR-3, in the experiment with HCT-116 and in the experiment on OVCAR-8 was > 100 µM (inactive) throughout.

In the case of `CC(=O)O[C@H]1C(=O)[C@@]2(C)[C@H]([C@H](OC(=O)c3ccc(F)cc3)[C@]3(O)C[C@H](OC(=O)[C@H](O)[C@@H](NC(=O)c4ccccc4)c4ccccc4)C(C)=C1C3(C)C)[C@]1(OC(C)=O)CO[C@@H]1C[C@@H]2O`, the GI50 with HCC 2998 was 0.0107 µM (active); in the experiment on U-251, 0.00857 µM (active); in the experiment with NCI-H460 it was 0.0132 µM (active); with MDA-MB-435 it was 0.0025 µM (active); in the experiment with SNB-19, 0.0306 µM (active); in the experiment on UO-31, 5.92 µM (inactive). Moreover, the GI50 in the experiment on MCF7 is 0.00334 µM (active); with SNB-75, 0.0189 µM (active); with UACC-62, 0.0199 µM (active); in the experiment with SF-539, 0.0102 µM (active); with UACC-257, 0.0399 µM (active); with OVCAR-4 it was 6.58 µM (inactive). The 50% growth inhibitory concentration (GI50) in the experiment with NCI-H226 is 0.108 µM (active); with HOP-62 it was 0.126 µM (active); in the experiment on PC-3, 0.0112 µM (active); with OVCAR-3 it was 0.00557 µM (active); in the experiment with HCT-116 it was 0.00608 µM (active); in the experiment with OVCAR-8, 0.0181 µM (active). In the experiment on COLO 205, the GI50 is 0.0108 µM (active).
